Experimental data taken from patent publication US12220703B2, “Multi function spinning platform” (Danmarks Tekniske Universitet, priority 2018, dated 2025).

Test system: P. aeruginosa biofilm
Assay: Antibiotic treatment of mature biofilm in perfusion on the centrifugal microfluidic disc, propidium iodide dead/alive biomass by confocal microscopy
Type: cell-based
Settings: 72 hours biofilm, after 24 hours of antibiotic perfusion, ciprofloxacin 4 μg/mL
Method: The following is an example of how to set up an experiment using the centrifugal microfluidic disc according to the present disclosure. Initially, the entire system including the microfluidic channels is sterilized. After the sterilization of the disc, the system was filled with a medium and left overnight at a low flow rate (pump set on 0.5 RPM, around 60 μL/min). The inoculation of the bacteria in the sterilized disc was achieved by addition of 40 μL overnight culture of 1:100 diluted P. aeruginosa though the inoculation channel situated in close proximity to the cell culture chamber (see FIG. 30). During inoculation, the loading opening was closed to create a back-pressure avoiding bacteria occlusion in the serpentine channel. The adhesion of the bacteria in the culture chamber was carried out in stop flow for one hour, followed by rotation at the set frequency. The total volume of the cell chamber is around 55 μL and only 40 μL of PAO1 was inoculated in order to prevent the introduction of bacteria in the inlet channel. The inoculation in the flow system was achieved by stopping the pump and adding 250 μL overnight culture of 1:100 diluted P. aeruginosa in the selected channels in proximity of the flow chamber. It was important to clamp the silicone tubes which were feeding the channels in order to avoid a back flow. […]

## O=C(O)c1cn(C2CC2)c2cc(N3CCNCC3)c(F)cc2c1=O [antibiotic, Ciprofloxacin]
Flow rate 0.3 μL/min
  bacteria dead after antibiotic perfusion: around 70%
Flow rate 1 μL/min
  bacteria dead after antibiotic perfusion: around 50%
